Data on four compounds can be found in patent publication US7015231B2, “Chemical compounds” (SmithKline Beecham Corporation, priority 2001, dated 2006).

Some results are limits rather than exact numbers.

T1 sequence (P04629 440-796 limits assumed, species assumed): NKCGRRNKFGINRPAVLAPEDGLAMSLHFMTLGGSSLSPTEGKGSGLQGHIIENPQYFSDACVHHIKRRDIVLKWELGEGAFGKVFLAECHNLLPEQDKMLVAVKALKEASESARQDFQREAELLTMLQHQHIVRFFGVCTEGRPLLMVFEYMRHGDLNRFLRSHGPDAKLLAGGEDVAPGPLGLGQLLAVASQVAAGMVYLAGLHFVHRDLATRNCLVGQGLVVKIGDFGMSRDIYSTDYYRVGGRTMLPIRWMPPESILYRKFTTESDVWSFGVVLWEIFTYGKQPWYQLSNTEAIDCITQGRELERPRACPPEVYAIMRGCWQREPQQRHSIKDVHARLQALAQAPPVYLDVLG

The assay has as its target T1, TrkA (Homo sapiens, UniProt P04629).
T1 construct: The enzyme is a GST-fusion of the intracellular domain expressed in SF9 cells; GST; purchased Regeneron; host or cells: SF9 cells
As to the kind of experiment: TrkA substrate phosphorylation assay (tyrosine kinase activity, synthetic peptide substrate, 33P-ATP, p81 filter plates). It is filed as biochemical. The following applies: GST-fusion of the TrkA intracellular domain, 30 uM ATP, 50 uM Src peptide, RT for 120′. The method, then: Substrate phosphorylation assays were carried out as follows:
The enzyme is a GST-fusion of the intracellular domain expressed in SF9 cells. The enzyme is expressed and purified by Regeneron. The enzyme is preincubated with cold ATP and Mg to allow autophosphorylation prior to running the screen. […] The assay is performed in 96 well microtitre plates, and reaction products are detected following filtration through millipore p81 phosphocellulose plates.
In turn, `COc1ccccc1-c1cc(C=C2C(=O)Nc3ncc(Br)cc32)cc(Br)c1O` [Example 1, 3-(3-Bromo-4-hydroxy-5-(2′methoxyphenyl)-benzylidene)-5-bromo-1,3-dihydro-pyrrolo[2,3-b]pyridin-2-one] returned an IC50 below 10 nM. For `O=C1Nc2cccnc2C1=Cc1c[nH]c2ccccc12` [Example 3] the value was 10 to 250 nM; for `Cn1cc(C=C2C(=O)Nc3ncccc32)c2ccccc21` [Example 4], below 10 nM; for `O=C1Nc2ncccc2C1=Cc1c[nH]c2ccccc12` [Example 5], below 10 nM.
